Test results as given in patent publication US8999940B2 (Ipsen Pharma S.A.S., priority 2008, dated 2015).
Like-named read-outs stand apart in the source and are kept apart here. Where a SMILES comes first, the peptide text is derived from it. Where no end group is shown, it is not given here. [ ]: non-standard residue; d: D form. The star is where a group is joined. Tyr(3-OMe) = COc1cc(C[C@H](N)C(=O)O)ccc1O; Tic(7-OH) = O=C(O)[C@@H]1Cc2ccc(O)cc2CN1; Desaminotyrosyl = O=C(CCc1ccc(O)cc1)*; Nle = CCCC[C@H](N)C(=O)O; Ac5c = NC1(C(=O)O)CCCC1; Aib = CC(C)(N)C(=O)O

Legend:
[1] = Human plasma half-life assay; type: in vitro ADME; conditions: 37° C., LC-MS, read-out: Human Plasma T½ (converted)
Protocol: (§1) B. Human and Rat Plasma Half-Life Assay
(§2) 50 μl was removed at various times, like at 0, 1, 2, 3, 4, 8, 24, 32, 48, 56, 72 hours, mixed with 5 μl formic acid and 150 μL acetonitrile in a microcentrifuge tube, vertexed, and centrifuged for 10 minutes at 10 K rpm. The supernatant was transferred to an injection vial and analyzed by LC-MS. The LC-MS system consisted of an API4000 mass spectrometer with an ESI probe. Positive ion mode and full scan detection were used. HPLC separation was carried out on a Luna 3μ. C8 (2), 2×30 mm column with a gradient from 90% A to 90% B in 10 minutes at a flow rate of 0.3 ml/min. Buffer A was 1% formic acid in water and buffer B was 1% formic acid acetonitrile.

[2] = Rat plasma half-life assay; type: in vitro ADME; conditions: 37° C., LC-MS, read-out: Rat Plasma T½ (converted)
Protocol: as §1, §2

[3] = biological target: T1, human recombinant GIP receptor (Homo sapiens, UniProt P48546); assay: In vitro hGIP receptor binding assay
T1 construct: expressed in transfected cells; host or cells: CHO-K1 clonal cells (membrane preparation)
T1 sequence (P48546 22-466): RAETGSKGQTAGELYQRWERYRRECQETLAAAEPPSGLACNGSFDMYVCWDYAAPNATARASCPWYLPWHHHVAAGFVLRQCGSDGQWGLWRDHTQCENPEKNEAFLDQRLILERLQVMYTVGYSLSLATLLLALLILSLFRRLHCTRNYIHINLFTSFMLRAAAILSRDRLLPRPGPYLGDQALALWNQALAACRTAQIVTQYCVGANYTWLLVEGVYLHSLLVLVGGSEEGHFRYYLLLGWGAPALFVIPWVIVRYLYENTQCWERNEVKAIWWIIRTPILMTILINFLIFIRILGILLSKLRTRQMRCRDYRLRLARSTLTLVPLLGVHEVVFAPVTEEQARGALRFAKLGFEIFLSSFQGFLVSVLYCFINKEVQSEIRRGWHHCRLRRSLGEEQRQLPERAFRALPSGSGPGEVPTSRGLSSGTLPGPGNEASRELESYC
Protocol: A. In Vitro hGIP Receptor Binding Assay […] The incubations were terminated by rapid filtration through GF/C filters (pre-soaked in 0.5% polyethylenimine) using a Brandel filtration manifold. Each tube and filter were then washed three times with 5-ml aliquots of ice-cold buffer.

Molecule | half-life at 0.1 mg/ml [1] [h] | half-life at 0.1 mg/ml [2] [h] | Ki [3] [nM] | other results
CCCC[C@H](NC(=O)[C@H](C)NC(=O)[C@@H](NC(=O)[C@H](CO)NC(=O)[C@H](Cc1ccc(O)cc1)NC(=O)[C@H](CC(=O)O)NC(=O)[C@H](CO)NC(=O)[C@@H](NC(=O)[C@H](Cc1ccccc1)NC(=O)[C@@H](NC(=O)CNC(=O)[C@H](CCC(=O)O)NC(=O)C(C)(C)NC(=O)CCc1ccc(O)cc1)[C@@H](C)O)[C@@H](C)CC)[C@@H](C)CC)C(=O)N[C@@H](CC(=O)O)C(=O)N[C@@H](CCCCN)C(=O)N[C@H](C(=O)N[C@@H](Cc1c[nH]cn1)C(=O)N[C@@H](CCC(N)=O)C(=O)N[C@@H](CCC(N)=O)C(=O)N[C@@H](CC(=O)O)C(=O)N[C@@H](Cc1ccccc1)C(=O)N[C@H](C(=O)N[C@@H](CC(N)=O)C(=O)N[C@@H](Cc1c[nH]c2ccccc12)C(=O)N[C@@H](CC(C)C)C(=O)N[C@@H](CC(C)C)C(=O)N[C@@H](C)C(=O)N[C@@H](CCC(N)=O)C(=O)N[C@@H](CCCCN)C(N)=O)C(C)C)[C@@H](C)CC [Example 5, (4Hppa^1, Aib^2, Nle^14)hGIP(1-30)-NH2] (Desaminotyrosyl-[Aib]EGTFISDYSIA[Nle]DKIHQQDFVNWLLAQK-NH2) | 50.6 | 83.5 | 2.95 | –
CCCC[C@H](NC(=O)[C@H](C)NC(=O)[C@@H](NC(=O)[C@H](CO)NC(=O)[C@H](Cc1ccc(O)cc1)NC(=O)[C@H](CC(=O)O)NC(=O)[C@H](CO)NC(=O)[C@@H](NC(=O)[C@H](Cc1ccccc1)NC(=O)[C@@H](NC(=O)CNC(=O)[C@@H]1CCCN1C(=O)C(C)(C)NC(=O)CCc1ccc(O)cc1)[C@@H](C)O)[C@@H](C)CC)[C@@H](C)CC)C(=O)N[C@@H](CC(=O)O)C(=O)N[C@@H](CCCCN)C(=O)N[C@H](C(=O)N[C@@H](Cc1c[nH]cn1)C(=O)N[C@@H](CCC(N)=O)C(=O)N[C@@H](CCC(N)=O)C(=O)N[C@@H](CC(=O)O)C(=O)N[C@@H](Cc1ccccc1)C(=O)N[C@H](C(=O)N[C@@H](CC(N)=O)C(=O)N[C@@H](Cc1c[nH]c2ccccc12)C(=O)N[C@@H](CC(C)C)C(=O)N[C@@H](CC(C)C)C(=O)N[C@@H](C)C(=O)N[C@@H](CCC(N)=O)C(=O)N[C@@H](CCCCN)C(N)=O)C(C)C)[C@@H](C)CC [Example 9, (4Hppa^1, Aib^2, hPro^3, Nle^14)hGIP(1-30)-NH2] (Desaminotyrosyl-[Aib]PGTFISDYSIA[Nle]DKIHQQDFVNWLLAQK-NH2) | – | – | – | half-life [1]: 26.5 h; half-life [2]: 14 h
CCCC[C@H](NC(=O)C(C)(C)NC(=O)[C@@H](NC(=O)[C@H](CO)NC(=O)[C@H](Cc1ccc(O)cc1)NC(=O)[C@H](CC(=O)O)NC(=O)[C@H](CO)NC(=O)[C@@H](NC(=O)[C@H](Cc1ccccc1)NC(=O)[C@@H](NC(=O)CNC(=O)[C@H](CCC(=O)O)NC(=O)C(C)(C)NC(=O)[C@@H](N)Cc1c[nH]cn1)[C@@H](C)O)[C@@H](C)CC)[C@@H](C)CC)C(=O)N[C@@H](CC(=O)O)C(=O)N[C@@H](CCCCN)C(=O)N[C@H](C(=O)N[C@@H](Cc1c[nH]cn1)C(=O)N[C@@H](CCC(N)=O)C(=O)N[C@@H](CCC(N)=O)C(=O)N[C@@H](CC(=O)O)C(=O)N[C@@H](Cc1ccccc1)C(=O)N[C@H](C(=O)N[C@@H](CC(N)=O)C(=O)N[C@@H](Cc1c[nH]c2ccccc12)C(=O)N[C@@H](CC(C)C)C(=O)N[C@@H](CC(C)C)C(=O)N[C@@H](C)C(=O)N[C@@H](CCC(N)=O)C(=O)N[C@@H](CCCCN)C(=O)NCC(=O)N[C@@H](CCCCN)C(=O)N[C@@H](CCCCN)C(=O)N[C@@H](CC(N)=O)C(=O)N[C@@H](CC(=O)O)C(=O)N[C@@H](Cc1c[nH]c2ccccc12)C(=O)N[C@@H](CCCCN)C(=O)N[C@@H](Cc1c[nH]cn1)C(=O)N[C@@H](CC(N)=O)C(=O)N[C@H](C(=O)N[C@H](C(=O)N[C@@H](CCC(N)=O)C(=O)O)[C@@H](C)O)[C@@H](C)CC)C(C)C)[C@@H](C)CC [Example 10, (His^1, Aib^2, 13, Nle^14)hGIP(1-42)-OH] | 71.4 | 9.2 | 3.33 | –
CCCC[C@H](NC(=O)[C@H](C)NC(=O)[C@@H](NC(=O)C1(NC(=O)[C@H](Cc2ccc(O)cc2)NC(=O)[C@H](CC(=O)O)NC(=O)[C@H](CO)NC(=O)[C@@H](NC(=O)[C@H](Cc2ccccc2)NC(=O)[C@@H](NC(=O)CNC(=O)[C@H](CCC(=O)O)NC(=O)C(C)(C)NC(=O)[C@@H](N)Cc2c[nH]cn2)[C@@H](C)O)[C@@H](C)CC)CCCC1)[C@@H](C)CC)C(=O)N[C@@H](CC(=O)O)C(=O)N[C@@H](CCCCN)C(=O)N[C@H](C(=O)N[C@@H](Cc1c[nH]cn1)C(=O)N[C@@H](CCC(N)=O)C(=O)N[C@@H](CCC(N)=O)C(=O)N[C@@H](CC(=O)O)C(=O)N[C@@H](Cc1ccccc1)C(=O)N[C@H](C(=O)N[C@@H](CC(N)=O)C(=O)N[C@@H](Cc1c[nH]c2ccccc12)C(=O)N[C@@H](CC(C)C)C(=O)N[C@@H](CC(C)C)C(=O)N[C@@H](C)C(=O)N[C@@H](CCC(N)=O)C(=O)N[C@@H](CCCCN)C(=O)NCC(=O)N[C@@H](CCCCN)C(=O)N[C@@H](CCCCN)C(=O)N[C@@H](CC(N)=O)C(=O)N[C@@H](CC(=O)O)C(=O)N[C@@H](Cc1c[nH]c2ccccc12)C(=O)N[C@@H](CCCCN)C(=O)N[C@@H](Cc1c[nH]cn1)C(=O)N[C@@H](CC(N)=O)C(=O)N[C@H](C(=O)N[C@H](C(=O)N[C@@H](CCC(N)=O)C(=O)O)[C@@H](C)O)[C@@H](C)CC)C(C)C)[C@@H](C)CC [Example 12, (His^1, Aib^2, A5c^11, Nle^14)hGIP(1-42)-OH] | 82.5 | 11 | 3.18 | –
CC[C@H](C)[C@H](NC(=O)[C@H](CCCCN)NC(=O)[C@H](CC(=O)O)NC(=O)C1(NC(=O)[C@H](C)NC(=O)[C@@H](NC(=O)C2(NC(=O)[C@H](Cc3ccc(O)cc3)NC(=O)[C@H](CC(=O)O)NC(=O)[C@H](CO)NC(=O)[C@@H](NC(=O)[C@H](Cc3ccccc3)NC(=O)[C@@H](NC(=O)CNC(=O)[C@H](CCC(=O)O)NC(=O)C(C)(C)NC(=O)[C@@H](N)Cc3ccc(O)c(Br)c3)[C@@H](C)O)[C@@H](C)CC)CCCC2)[C@@H](C)CC)CCCC1)C(=O)N[C@@H](Cc1c[nH]cn1)C(=O)N[C@@H](CCC(N)=O)C(=O)N[C@@H](CCC(N)=O)C(=O)N[C@@H](CC(=O)O)C(=O)N[C@@H](Cc1ccccc1)C(=O)N[C@H](C(=O)N[C@@H](CC(N)=O)C(=O)N[C@@H](Cc1c[nH]c2ccccc12)C(=O)N[C@@H](CC(C)C)C(=O)N[C@@H](CC(C)C)C(=O)N[C@@H](C)C(=O)N[C@@H](CCC(N)=O)C(=O)N[C@@H](CCCCN)C(=O)NCC(=O)N[C@@H](CCCCN)C(=O)N[C@@H](CCCCN)C(=O)N[C@@H](CC(N)=O)C(=O)N[C@@H](CC(=O)O)C(=O)N[C@@H](Cc1c[nH]c2ccccc12)C(=O)N[C@@H](CCCCN)C(=O)N[C@@H](Cc1c[nH]cn1)C(=O)N[C@@H](CC(N)=O)C(=O)N[C@H](C(=O)N[C@H](C(=O)N[C@@H](CCC(N)=O)C(=O)N[C@@H](Cc1c[nH]cn1)C(=O)O)[C@@H](C)O)[C@@H](C)CC)C(C)C [Example 72, (3Br-Tyr^1, Aib^2, A5c^11, 14, His^43)hGIP(1-43)-OH] | – | – | 0.92 | –
[3Cl-Tyr^1, Aib^2, A5c^11, Cys^43(succinimide-N—(CH2)2—C(O)NH—(CH2)3—O—CH2—CH(20K PEG)-CH2-20K PEG)]hGIP(1-43)-NH2 [Example 102] | – | – | – | Ki ([3]; membranes of CHO-K1 cells expressing the human recombinant GIP receptor, 0.05 nM [125I]GIP, 100 minutes at 25° C., read-out: Ki): 42.4 nM
[Tic(7-OH)][Aib]EGTFISDY[Ac5c]IAMDKIHQQDFVNWLLAQKGKKNDWKHNITQH-OH [Example 77, (7HO-Tic^1, Aib^2, A5c^11, His^43)hGIP(1-43)-OH] | – | – | 4.82 | –
[Tyr(3-OMe)][Aib]EGTFISDY[Ac5c]IA[Ac5c]DKIHQQDFVNWLLAQKGKKNDWKHNI[Ac5c]QH-OH [Example 75, (3MeO-Tyr^1, Aib^2, A5c^11, 14, His^43)hGIP(1-43)-OH] | – | – | – | half-life [1]: > 60 h; half-life [2]: 18.6 h
